Assays:
[1] = tested on: NCI-H526 (Small Cell Lung Carcinoma); assay: Bliss excess, mean over the matrix (fraction); higher = more synergy
Outline: (§1)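 After 24 hours at 37°C and 5% CO2 in 1536-well plates, cells in DMEM/F12 or RPMI plus 10% FBS received two-drug dose matrices for 72 hours. Viability came from CellTiter-Glo 2.0 luminescence and was scaled as inhibition, anchored at 0 by vehicle wells and at 1 by blank wells. Combination Emax is taken as the second-highest inhibition in the matrix, and Bliss excess as the observed combination effect less EA + EB − EA·EB, with EA and EB the single-agent effects.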

[2] = tested on: SK-GT-4 (Esophageal Adenocarcinoma); assay: as above
Outline: as §1

SJSA-1 (Osteosarcoma) [3] = assay: as above
Outline: as §1

[4] = tested on: ST486 (Burkitt's Lymphoma); assay: as above
Outline: as §1

NCI-H2731 (Mesothelioma) [5] = assay: as above
Outline: as §1

[6] = tested on: MOG-G-CCM (Low Grade Glioma); assay: as above
Outline: as §1

[7] = tested on: T-T (Esophageal Squamous Cell Carcinoma); assay: as above
Outline: as §1

[8] = tested on: KP-3 (Pancreatic Carcinoma); assay: as above
Outline: as §1

[9] = tested on: NCI-H520 (Squamous Cell Lung Carcinoma); assay: as above
Outline: as §1

[10] = tested on: KU812 (Chronic Myelogenous Leukemia); assay: as above
Outline: as §1

[11] = tested on: CW-2 (Colorectal Carcinoma); assay: as above
Outline: as §1

M059J (Glioblastoma) [12] = assay: as above
Outline: as §1

[13] = tested on: NCCIT (Other Solid Carcinomas); assay: as above
Outline: as §1

[14] = tested on: COR-L279 (Small Cell Lung Carcinoma); assay: as above
Outline: as §1

[15] = tested on: DMS-114 (Small Cell Lung Carcinoma); assay: as above
Outline: as §1

[16] = tested on: NCI-H3122 (Lung Adenocarcinoma); assay: as above
Outline: as §1

[17] = tested on: VMRC-RCZ (Kidney Carcinoma); assay: as above
Outline: as §1

[18] = tested on: MN-60 (B-Lymphoblastic Leukemia); assay: as above
Outline: as §1

[19] = tested on: OCI-AML3 (Acute Myeloid Leukemia); assay: as above
Outline: as §1

[20] = tested on: KYSE-270 (Esophageal Squamous Cell Carcinoma); assay: as above
Outline: as §1

[21] = tested on: NCI-H929 (Plasma Cell Myeloma); assay: as above
Outline: as §1

[22] = tested on: NCI-H526 (Small Cell Lung Carcinoma); assay: combination Emax (second highest fraction inhibited in the dose matrix, 72 h); higher = more inhibition; extreme values may be limits of the assay
Outline: as §1

[23] = tested on: SK-GT-4 (Esophageal Adenocarcinoma); assay: as above
Outline: as §1

SJSA-1 (Osteosarcoma) [24] = assay: as above
Outline: as §1

[25] = tested on: ST486 (Burkitt's Lymphoma); assay: as above
Outline: as §1

NCI-H2731 (Mesothelioma) [26] = assay: as above
Outline: as §1

[27] = tested on: MOG-G-CCM (Low Grade Glioma); assay: as above
Outline: as §1

[28] = tested on: T-T (Esophageal Squamous Cell Carcinoma); assay: as above
Outline: as §1

[29] = tested on: KP-3 (Pancreatic Carcinoma); assay: as above
Outline: as §1

[30] = tested on: NCI-H520 (Squamous Cell Lung Carcinoma); assay: as above
Outline: as §1

[31] = tested on: KU812 (Chronic Myelogenous Leukemia); assay: as above
Outline: as §1

[32] = tested on: CW-2 (Colorectal Carcinoma); assay: as above
Outline: as §1

M059J (Glioblastoma) [33] = assay: as above
Outline: as §1

[34] = tested on: NCCIT (Other Solid Carcinomas); assay: as above
Outline: as §1

[35] = tested on: COR-L279 (Small Cell Lung Carcinoma); assay: as above
Outline: as §1

[36] = tested on: DMS-114 (Small Cell Lung Carcinoma); assay: as above
Outline: as §1

[37] = tested on: NCI-H3122 (Lung Adenocarcinoma); assay: as above
Outline: as §1

[38] = tested on: VMRC-RCZ (Kidney Carcinoma); assay: as above
Outline: as §1

[39] = tested on: MN-60 (B-Lymphoblastic Leukemia); assay: as above
Outline: as §1

[40] = tested on: OCI-AML3 (Acute Myeloid Leukemia); assay: as above
Outline: as §1

[41] = tested on: KYSE-270 (Esophageal Squamous Cell Carcinoma); assay: as above
Outline: as §1

[42] = tested on: NCI-H929 (Plasma Cell Myeloma); assay: as above
Outline: as §1
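Throughout, for Bliss excess, mean over the matrix: after 72 h of two-drug dosing.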

SMILES: CN(CCO)CC[C@H](CSc1ccccc1)Nc1ccc(S(=O)(=O)NC(=O)c2ccc(N3CCC([C@@H](O)c4ccccc4-c4ccc(Cl)cc4)CC3)cc2)cc1S(=O)(=O)C(F)(F)F [AZD4320] + CC(=O)O[C@H]1C(=O)[C@@]2(C)[C@H]([C@H](OC(=O)c3ccccc3)[C@]3(O)C[C@H](OC(=O)[C@H](O)[C@@H](NC(=O)c4ccccc4)c4ccccc4)C(C)=C1C3(C)C)[C@]1(OC(C)=O)CO[C@@H]1C[C@@H]2O [Paclitaxel] (first compound max 1 µM, 7x7, partner max 3 µM)
- Bliss excess [1]: 0.0193
- Bliss excess [2]: 0.0543
- Bliss excess (SJSA-1 (Osteosarcoma) [3]): 0.0637
- Bliss excess [4]: -0.0016
- Bliss excess (NCI-H2731 (Mesothelioma) [5]): 0.0876
- Bliss excess [6]: 0.0506
- Bliss excess [7]: 0.0528
- Bliss excess [8]: 0.131
- Bliss excess [9]: 0.0142
- Bliss excess [10]: -0.0252
- Bliss excess [11]: -0.0328
- Bliss excess (M059J (Glioblastoma) [12]): 0.0756
- Bliss excess [13]: 0.0317
- Bliss excess [14]: 0.0141
- Bliss excess [15]: 0.0486
- Bliss excess [16]: 0.0379
- Bliss excess [17]: 0.128
- Bliss excess [18]: 0.0332
- Bliss excess [19]: 0.007
- Bliss excess [20]: 0.0171
- Bliss excess [21]: -0.0687
- combination Emax [22]: 1
- combination Emax [23]: 0.894
- combination Emax (SJSA-1 (Osteosarcoma) [24]): 0.967
- combination Emax [25]: 1
- combination Emax (NCI-H2731 (Mesothelioma) [26]): 0.932
- combination Emax [27]: 0.996
- combination Emax [28]: 0.92
- combination Emax [29]: 0.8
- combination Emax [30]: 0.944
- combination Emax [31]: 0.943
- combination Emax [32]: 0.608
- combination Emax (M059J (Glioblastoma) [33]): 0.974
- combination Emax [34]: 0.989
- combination Emax [35]: 1
- combination Emax [36]: 0.879
- combination Emax [37]: 0.999
- combination Emax [38]: 0.693
- combination Emax [39]: 0.546
- combination Emax [40]: 1
- combination Emax [41]: 0.913
- combination Emax [42]: 0.926

SMILES: C[C@@H]1COCCN1c1cc(C2([S@](C)(=N)=O)CC2)nc(-c2ccnc3[nH]ccc23)n1 [AZD6738] + Nc1ccn([C@@H]2O[C@H](CO)[C@@H](O)C2(F)F)c(=O)n1 [Gemcitabine] (first compound max 10 µM, 7x7, partner max 0.3 µM)
- Bliss excess [1]: 0.0678
- Bliss excess [2]: 0.023
- Bliss excess (SJSA-1 (Osteosarcoma) [3]): -0.0104
- Bliss excess [4]: 0.0362
- Bliss excess (NCI-H2731 (Mesothelioma) [5]): 0.0371
- Bliss excess [6]: 0.0311
- Bliss excess [7]: 0.221
- Bliss excess [9]: 0.0434
- Bliss excess [10]: -0.0077
- Bliss excess [11]: 0.0109
- Bliss excess (M059J (Glioblastoma) [12]): 0.0209
- Bliss excess [13]: 0.107
- Bliss excess [14]: 0.0205
- Bliss excess [15]: 0.0549
- Bliss excess [16]: 0.0297
- Bliss excess [17]: 0.0193
- Bliss excess [18]: -0.0375
- Bliss excess [19]: -0.0143
- Bliss excess [20]: 0.0806
- Bliss excess [21]: 0
- combination Emax [22]: 0.973
- combination Emax [23]: 0.585
- combination Emax (SJSA-1 (Osteosarcoma) [24]): 0.722
- combination Emax [25]: 0.98
- combination Emax (NCI-H2731 (Mesothelioma) [26]): 0.511
- combination Emax [27]: 0.783
- combination Emax [28]: 0.897
- combination Emax [30]: 0.916
- combination Emax [31]: 0.853
- combination Emax [32]: 0.659
- combination Emax (M059J (Glioblastoma) [33]): 0.823
- combination Emax [34]: 0.839
- combination Emax [35]: 0.995
- combination Emax [36]: 0.78
- combination Emax [37]: 0.899
- combination Emax [38]: 0.542
- combination Emax [39]: 0.72
- combination Emax [40]: 0.953
- combination Emax [41]: 1
- combination Emax [42]: 0.906

SMILES: CC1(C)CCC(CN2CCN(c3ccc(C(=O)NS(=O)(=O)c4ccc(NCC5CCOCC5)c([N+](=O)[O-])c4)c(Oc4cnc5[nH]ccc5c4)c3)CC2)=C(c2ccc(Cl)cc2)C1 [Venetoclax] + CS(=O)(=O)CCNCc1ccc(-c2ccc3ncnc(Nc4ccc(OCc5cccc(F)c5)c(Cl)c4)c3c2)o1 [Lapatinib] (first compound max 1 µM, 7x7, partner max 10 µM)
- Bliss excess [1]: 0.105
- Bliss excess [2]: -0.0436
- Bliss excess (SJSA-1 (Osteosarcoma) [3]): -0.002
- Bliss excess [4]: 0.0224
- Bliss excess (NCI-H2731 (Mesothelioma) [5]): -0.0257
- Bliss excess [6]: -0.0568
- Bliss excess [7]: -0.0066
- Bliss excess [8]: -0.0487
- Bliss excess [9]: -0.0169
- Bliss excess [10]: 0.0282
- Bliss excess [11]: -0.0116
- Bliss excess (M059J (Glioblastoma) [12]): -0.0225
- Bliss excess [13]: -0.024
- Bliss excess [14]: -0.0185
- Bliss excess [15]: -0.0443
- Bliss excess [16]: -0.0229
- Bliss excess [17]: -0.047
- Bliss excess [18]: -0.0502
- Bliss excess [19]: 0.01
- Bliss excess [20]: -0.0175
- Bliss excess [21]: -0.0098
- combination Emax [22]: 0.727
- combination Emax [23]: 0.341
- combination Emax (SJSA-1 (Osteosarcoma) [24]): 0.219
- combination Emax [25]: 0.524
- combination Emax (NCI-H2731 (Mesothelioma) [26]): 0.285
- combination Emax [27]: 0.166
- combination Emax [28]: 0.794
- combination Emax [29]: 0.165
- combination Emax [30]: 0.296
- combination Emax [31]: 0.831
- combination Emax [32]: 0.379
- combination Emax (M059J (Glioblastoma) [33]): 0.365
- combination Emax [34]: 0.209
- combination Emax [35]: 0.911
- combination Emax [36]: 0.226
- combination Emax [37]: 0.232
- combination Emax [38]: 0.155
- combination Emax [39]: 0.111
- combination Emax [40]: 0.397
- combination Emax [41]: 0.477
- combination Emax [42]: 0.207

Source: the supplement of paper PMC11061612
